Assay results reported in paper PMC3913255, “Ligand determinants of fatty acid activation of the pronociceptive ion channel TRPA1” (PeerJ, 2014).
Where two headings read alike, the source gives them in different places. Blank lines part the entries; values can stand above or below the molecule they belong to.

What was measured:
Format in all cases: cell-based
CaV3.1 = target: T1, CaV3.1 (Homo sapiens, UniProt O43497); experiment: patch clamp recording of CaV3.[…] channels, […]
T1 construct: gene CACNA1G

hTRPA1 [1] = target: T2, hTRPA1 (Homo sapiens, UniProt O75762); experiment: calcium fluorescence assay in HEK […] cells expressing hTRPA1 ([…]); details: HEK293; read-out: % increase in [Ca]i at 30 μM
T2 construct: gene TRPA1

hTRPA1 [2] = target: T2, hTRPA1; experiment: calcium fluorescence assay and whole-cell patch clamp in HEK […] cells expressing hTRPA1
hTRPA1 [3] = target: T2, hTRPA1; experiment: as above; remark: listed apart in the source
mTRPA1 = target: T3, mTRPA1 (Mus musculus, UniProt Q8BLA8); experiment: calcium fluorescence assay in HEK […] cells expressing mouse TRPA1 ([…]); details: HEK293; read-out: % of CA (300 μM) response at 100 μM
T3 construct: gene Trpa1

hTRPA1 [4] = target: T2, hTRPA1; experiment: calcium fluorescence assay in HEK […] cells expressing hTRPA1 ([…]); details: HEK293, read-out: % increase in [Ca]i at 30 μM
hTRPA1 [5] = target: T2, hTRPA1; experiment: as above; details: HEK293; read-out: Change in RFU (% Predrug)

T2 sequence (O75762 whole entry): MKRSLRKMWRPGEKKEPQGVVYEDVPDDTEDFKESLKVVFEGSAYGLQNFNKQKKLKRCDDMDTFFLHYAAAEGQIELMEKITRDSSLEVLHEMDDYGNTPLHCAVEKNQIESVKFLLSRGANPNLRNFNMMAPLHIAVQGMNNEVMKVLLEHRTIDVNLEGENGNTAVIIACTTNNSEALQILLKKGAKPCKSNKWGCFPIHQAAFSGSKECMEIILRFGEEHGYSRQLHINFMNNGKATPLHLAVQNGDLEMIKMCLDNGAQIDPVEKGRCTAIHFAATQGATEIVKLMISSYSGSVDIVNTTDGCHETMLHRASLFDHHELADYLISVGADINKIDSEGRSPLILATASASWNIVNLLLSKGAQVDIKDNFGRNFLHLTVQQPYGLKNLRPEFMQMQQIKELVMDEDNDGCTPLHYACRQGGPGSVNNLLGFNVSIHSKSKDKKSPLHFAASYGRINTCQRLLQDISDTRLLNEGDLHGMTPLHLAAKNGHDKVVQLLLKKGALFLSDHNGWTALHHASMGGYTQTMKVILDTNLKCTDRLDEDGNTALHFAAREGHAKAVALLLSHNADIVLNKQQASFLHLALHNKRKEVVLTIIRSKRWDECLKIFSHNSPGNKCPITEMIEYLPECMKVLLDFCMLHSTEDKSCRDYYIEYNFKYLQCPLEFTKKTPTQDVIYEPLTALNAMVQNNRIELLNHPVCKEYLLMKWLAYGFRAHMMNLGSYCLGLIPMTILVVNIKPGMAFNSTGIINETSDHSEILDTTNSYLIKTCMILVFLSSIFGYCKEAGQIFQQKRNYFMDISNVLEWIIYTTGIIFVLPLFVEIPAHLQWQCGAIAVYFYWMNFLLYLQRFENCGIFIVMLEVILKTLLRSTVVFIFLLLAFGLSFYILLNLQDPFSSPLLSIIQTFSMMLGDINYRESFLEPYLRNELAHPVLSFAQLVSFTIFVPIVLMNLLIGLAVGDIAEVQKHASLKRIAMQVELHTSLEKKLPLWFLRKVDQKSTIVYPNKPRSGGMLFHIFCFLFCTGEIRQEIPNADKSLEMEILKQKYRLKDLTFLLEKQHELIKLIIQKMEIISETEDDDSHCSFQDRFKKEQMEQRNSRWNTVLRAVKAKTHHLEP
T1 sequence (O43497 whole entry): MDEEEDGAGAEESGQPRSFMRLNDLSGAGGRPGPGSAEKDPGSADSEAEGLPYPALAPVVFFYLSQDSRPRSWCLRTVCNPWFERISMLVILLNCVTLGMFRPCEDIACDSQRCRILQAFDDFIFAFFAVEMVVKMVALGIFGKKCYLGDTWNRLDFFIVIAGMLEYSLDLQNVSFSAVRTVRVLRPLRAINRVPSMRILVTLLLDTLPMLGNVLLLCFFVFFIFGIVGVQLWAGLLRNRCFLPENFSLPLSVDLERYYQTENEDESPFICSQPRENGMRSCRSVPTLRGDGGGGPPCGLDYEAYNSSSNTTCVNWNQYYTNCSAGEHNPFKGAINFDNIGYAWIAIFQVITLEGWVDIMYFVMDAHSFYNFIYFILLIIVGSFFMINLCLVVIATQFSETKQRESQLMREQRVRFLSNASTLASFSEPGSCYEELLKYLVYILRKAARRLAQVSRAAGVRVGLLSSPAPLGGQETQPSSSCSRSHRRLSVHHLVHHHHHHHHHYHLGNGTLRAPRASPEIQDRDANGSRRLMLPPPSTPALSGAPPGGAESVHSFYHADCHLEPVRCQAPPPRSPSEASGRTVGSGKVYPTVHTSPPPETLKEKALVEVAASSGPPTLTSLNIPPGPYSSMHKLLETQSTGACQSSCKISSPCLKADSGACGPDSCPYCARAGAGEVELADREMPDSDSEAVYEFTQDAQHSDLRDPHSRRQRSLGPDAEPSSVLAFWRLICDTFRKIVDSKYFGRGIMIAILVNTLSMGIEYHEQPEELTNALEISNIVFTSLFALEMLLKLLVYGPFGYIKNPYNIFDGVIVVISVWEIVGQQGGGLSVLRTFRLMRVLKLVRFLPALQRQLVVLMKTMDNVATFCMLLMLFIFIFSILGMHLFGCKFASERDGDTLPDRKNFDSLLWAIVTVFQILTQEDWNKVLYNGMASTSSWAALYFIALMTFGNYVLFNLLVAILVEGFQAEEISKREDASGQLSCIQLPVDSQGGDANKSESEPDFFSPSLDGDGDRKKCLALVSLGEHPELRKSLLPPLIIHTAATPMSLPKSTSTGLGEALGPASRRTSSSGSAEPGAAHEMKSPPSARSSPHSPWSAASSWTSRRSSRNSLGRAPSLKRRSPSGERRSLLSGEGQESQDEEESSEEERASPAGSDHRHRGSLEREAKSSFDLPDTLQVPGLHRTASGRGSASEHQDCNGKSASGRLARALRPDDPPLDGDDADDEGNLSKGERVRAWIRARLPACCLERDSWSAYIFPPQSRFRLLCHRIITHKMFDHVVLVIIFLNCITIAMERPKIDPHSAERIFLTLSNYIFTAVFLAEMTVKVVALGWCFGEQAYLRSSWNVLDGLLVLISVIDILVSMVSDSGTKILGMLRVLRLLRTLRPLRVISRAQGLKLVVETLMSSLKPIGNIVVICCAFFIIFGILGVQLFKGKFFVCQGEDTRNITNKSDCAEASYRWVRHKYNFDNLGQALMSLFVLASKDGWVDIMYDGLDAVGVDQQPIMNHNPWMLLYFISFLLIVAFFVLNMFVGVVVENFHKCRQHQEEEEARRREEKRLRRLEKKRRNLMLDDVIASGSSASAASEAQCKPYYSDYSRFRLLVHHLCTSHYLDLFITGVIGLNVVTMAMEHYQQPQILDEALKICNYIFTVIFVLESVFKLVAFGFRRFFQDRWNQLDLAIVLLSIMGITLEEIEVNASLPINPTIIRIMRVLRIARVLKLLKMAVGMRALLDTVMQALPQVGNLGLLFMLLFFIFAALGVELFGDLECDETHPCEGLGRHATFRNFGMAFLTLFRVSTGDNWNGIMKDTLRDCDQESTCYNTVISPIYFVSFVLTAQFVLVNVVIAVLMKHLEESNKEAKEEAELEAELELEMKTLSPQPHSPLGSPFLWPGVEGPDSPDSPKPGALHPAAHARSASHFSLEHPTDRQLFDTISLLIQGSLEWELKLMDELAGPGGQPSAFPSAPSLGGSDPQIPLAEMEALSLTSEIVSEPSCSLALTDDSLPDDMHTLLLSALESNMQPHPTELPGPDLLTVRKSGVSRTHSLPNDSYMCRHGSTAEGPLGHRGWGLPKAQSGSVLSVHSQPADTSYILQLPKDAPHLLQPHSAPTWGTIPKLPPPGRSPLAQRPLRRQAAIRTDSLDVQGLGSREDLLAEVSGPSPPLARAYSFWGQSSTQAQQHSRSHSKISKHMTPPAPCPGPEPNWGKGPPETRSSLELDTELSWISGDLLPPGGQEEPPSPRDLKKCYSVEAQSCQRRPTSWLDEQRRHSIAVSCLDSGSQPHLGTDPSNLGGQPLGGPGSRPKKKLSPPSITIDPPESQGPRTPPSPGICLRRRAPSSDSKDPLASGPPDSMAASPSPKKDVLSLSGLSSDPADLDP
T3 sequence (Q8BLA8 whole entry): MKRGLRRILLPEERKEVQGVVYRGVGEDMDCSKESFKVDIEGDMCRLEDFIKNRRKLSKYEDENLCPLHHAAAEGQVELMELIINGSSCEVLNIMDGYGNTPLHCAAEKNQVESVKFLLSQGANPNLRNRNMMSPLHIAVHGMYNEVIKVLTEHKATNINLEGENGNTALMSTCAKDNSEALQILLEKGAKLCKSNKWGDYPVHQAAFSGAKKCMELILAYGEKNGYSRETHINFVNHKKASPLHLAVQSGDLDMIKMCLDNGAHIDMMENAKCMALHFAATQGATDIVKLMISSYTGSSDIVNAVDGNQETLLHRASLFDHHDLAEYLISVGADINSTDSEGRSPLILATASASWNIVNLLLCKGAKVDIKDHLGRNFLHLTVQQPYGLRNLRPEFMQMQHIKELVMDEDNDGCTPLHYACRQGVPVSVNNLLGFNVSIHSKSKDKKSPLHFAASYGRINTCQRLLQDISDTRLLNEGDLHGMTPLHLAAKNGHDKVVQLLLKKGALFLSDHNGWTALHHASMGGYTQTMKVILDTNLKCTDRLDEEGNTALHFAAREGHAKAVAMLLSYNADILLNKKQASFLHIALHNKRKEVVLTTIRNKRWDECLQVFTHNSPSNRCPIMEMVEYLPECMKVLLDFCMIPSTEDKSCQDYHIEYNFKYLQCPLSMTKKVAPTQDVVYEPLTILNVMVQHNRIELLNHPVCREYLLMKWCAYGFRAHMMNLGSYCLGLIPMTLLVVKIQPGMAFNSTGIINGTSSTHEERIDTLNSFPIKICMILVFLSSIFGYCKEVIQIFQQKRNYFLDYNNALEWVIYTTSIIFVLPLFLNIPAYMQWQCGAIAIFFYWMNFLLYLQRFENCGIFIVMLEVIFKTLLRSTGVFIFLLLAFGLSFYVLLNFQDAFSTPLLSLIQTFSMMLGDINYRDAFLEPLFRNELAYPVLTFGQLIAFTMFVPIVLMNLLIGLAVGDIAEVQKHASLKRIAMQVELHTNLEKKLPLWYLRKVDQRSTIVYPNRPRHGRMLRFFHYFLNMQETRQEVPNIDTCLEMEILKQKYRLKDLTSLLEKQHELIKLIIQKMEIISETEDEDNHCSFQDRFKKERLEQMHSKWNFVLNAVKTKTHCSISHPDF

inhibition at 10 µM (CaV3.1): 64 ± 8%
Compound: CCCCC/C=C\C/C=C\C/C=C\C/C=C\CCCCCC(=O)O [adrenic acid]

Compound: CCCCC/C=C\C/C=C\C/C=C\C/C=C\CCCC(=O)NCCO [AEA, anandamide]
activation at 30 µM (hTRPA1 [1]): 227 ± 42%

Compound: O=C/C=C/c1ccccc1 [CA, Cinnamaldehyde]
EC50 (hTRPA1 [2]): 11 ± 2 µM

Compound: CCCCC/C=C\C/C=C\C/C=C\C/C=C\CCCC(=O)O [AA, arachidonic acid]
EC50 (hTRPA1 [3]): 13 ± 4 µM
Emax at 100 µM (mTRPA1): 81 ± 4%

Compound: CCCCC/C=C\C/C=C\C/C=C\C/C=C\CCCC(=O)N[C@@H](Cc1ccc(O)cc1)C(=O)O [NA-Tyr, N-arachidonoyl tyrosine]
activation at 30 µM (hTRPA1 [4]): 172 ± 20%

activation at 30 µM (hTRPA1 [5]): 302 ± 53%
Compound: CCCCC/C=C\C/C=C\C/C=C\C/C=C\CCCC(=O)OC [AA-ME, Arachidonic acid methyl ester]

Compound: CCCCC/C=C\C/C=C\C/C=C\C/C=C\CCCC(=O)O [AA, ω6-arachidonic acid]
inhibition at 10 µM (CaV3.1): 81 ± 4%
